The target in test [1] is recombinant N-terminal PMS2 (residues 1-365) (Homo sapiens (Human), UniProt P54278). Put plainly: Fluorescence polarisation assay for PMS2. As to conditions: FP probe displacement; 10 nM N-terminal PMS2, 5 nM probe compound, read after 1 hour. It is filed as binding. The procedure:
Fluorescence Polarisation Assay for PMS2
(§1) Test compounds, as 10 mM DMSO stocks, were dispensed into a Black Fluotrac 200 384 well medium binding plate (Greiner Bio-One, item number 781076) using a Labcyte Echo acoustic liquid handler. For single point screening, test compounds were added to wells in columns 1-22 whilst DMSO was added to wells in columns 23 and 24 in order to normalise the plate. For potency determination, serial dilutions of test compounds were added to wells in columns 3-22 and DMSO volume was normalised across the plate.
20 μL assay buffer was added to all wells in columns 1 and 24 (column 24 only for single point screening) using a MultiDrop Combi (ThermoFisher). Plates were centrifuged for 1 minute at 250×g and were incubated at room temperature for 30 minutes prior to the addition of 20 μL of 2×([…]) of 5-((5-(4-((2-(2,4-dihydroxy-5-isopropylbenzoyl)isoindolin-5-yl)methyl)piperazin-1-yl)pentyl)carbamoyl)-2-(6-(dimethylamino)-3-(dimethyliminio)-3H-xanthen-9-yl)benzoate (referred to hereinafter as “probe compound”) in assay buffer (prepared from a 100 μM DMSO stock) with a MultiDrop Combi (ThermoFisher). The final concentration of N-terminal PMS2 was 10 nM and the final concentration of probe compound was 5 nM.
Compound plates were centrifuged for 1 minute at 250×g for 1 minute and were incubated at room temperature for 1 hour before being read on a PheraStar FSX (fitted with 384-well aperture spoon and 540 590 590 FP optic module). The gain and focus were adjusted before each plate was read so that the polarisation of a no enzyme control (column 24) was equal to 35 mP. Data were normalised against the no inhibitor controls (column 23) and no enzyme controls (column 24).

Test [2] addresses recombinant N-terminal MLH1 (residues 15-340) (Homo sapiens (Human), UniProt P40692). The experiment in a line: Fluorescence polarisation assay for MLH1 (protocol for all Examples except Examples 64, 76, 90 and 95). It is filed as binding. The conditions noted are these: FP probe displacement; 100 nM N-terminal MLH1, 5 nM probe compound, read after 15 minutes; all Examples except 64, 76, 90 and 95. The procedure:
Fluorescence Polarisation Assay for MLH1 (Protocol for all Examples Except Examples 64, 76, 90 and 95)
as §1
20 μL assay buffer was added to all wells in columns 1 and 24 (column 24 only for single point screening) using a MultiDrop Combi (ThermoFisher). Plates were centrifuged for 1 minute at 250×g and were incubated at room temperature for 30 minutes prior to the addition of 20 μL of 2×(10 nM) of 5-((5-(4-((2-(2,4-dihydroxy-5-isopropylbenzoyl)isoindolin-5-yl)methyl)piperazin-1-yl)pentyl)carbamoyl)-2-(6-(dimethylamino)-3-(dimethyliminio)-3H-xanthen-9-yl)benzoate (referred to hereinafter as “probe compound”) in assay buffer (prepared from a 100 μM DMSO stock) with a MultiDrop Combi (ThermoFisher). The final concentration of N-terminal MLH1 was 100 nM and the final concentration of probe compound was 5 nM.
Compound plates were centrifuged for 1 minute at 250×g for 1 minute and were incubated at room temperature for 15 minutes before being read on a PheraStar FSX (fitted with 384-well aperture spoon and 540 590 590 FP optic module). The gain and focus were adjusted before each plate was read so that the polarisation of a no enzyme control (column 24) was equal to 35 mP. Data were normalised against the no inhibitor controls (column 23) and no enzyme controls (column 24).
Background: Polarisation of emitted light reports the rotation of a fluorescent probe.

Our source for the IC50 values is US12552758B2, “Inhibitors of MLH1 and/or PMS2 for cancer treatment” (NeoPhore Limited, priority 2020, dated 2026).

For orientation: IC50 means the midpoint of a concentration-inhibition curve.

recombinant N-terminal MLH1 (residues 15-340), sequence (P40692 15-340): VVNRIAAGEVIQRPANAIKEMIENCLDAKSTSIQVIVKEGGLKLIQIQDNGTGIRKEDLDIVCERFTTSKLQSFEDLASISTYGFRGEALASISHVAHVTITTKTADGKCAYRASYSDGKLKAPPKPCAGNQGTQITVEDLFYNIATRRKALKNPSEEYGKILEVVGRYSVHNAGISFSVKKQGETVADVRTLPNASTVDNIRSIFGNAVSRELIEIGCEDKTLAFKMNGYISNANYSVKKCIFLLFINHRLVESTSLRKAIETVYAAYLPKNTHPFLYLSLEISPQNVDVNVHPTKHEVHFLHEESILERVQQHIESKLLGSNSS
recombinant N-terminal PMS2 (residues 1-365), sequence (P54278 1-365): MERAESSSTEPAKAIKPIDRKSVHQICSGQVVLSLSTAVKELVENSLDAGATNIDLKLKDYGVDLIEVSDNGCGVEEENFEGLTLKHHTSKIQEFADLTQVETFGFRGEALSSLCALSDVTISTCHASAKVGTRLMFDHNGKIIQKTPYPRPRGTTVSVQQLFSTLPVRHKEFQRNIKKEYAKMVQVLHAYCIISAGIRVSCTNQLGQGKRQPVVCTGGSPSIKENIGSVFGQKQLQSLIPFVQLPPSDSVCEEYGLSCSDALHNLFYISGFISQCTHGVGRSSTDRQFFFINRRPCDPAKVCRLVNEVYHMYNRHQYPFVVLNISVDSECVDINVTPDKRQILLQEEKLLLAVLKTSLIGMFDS

Turning to `COc1cc2c(cc1OC)CN(C(=O)c1c(O)cc(O)cc1OCc1ccccc1)C2` [Example 26, (2-benzyloxy-4,6-dihydroxy-phenyl)-(5,6-dimethoxyisoindolin-2-yl)methanone], the IC50 is under 1 µM in test [1] and 1 to 10 µM in test [2].
Consider `Cc1c(O)cc(O)c(C(=O)N2CCc3ncncc3C2)c1OCc1ccccc1` [Example 55, (2-(benzyloxy)-4,6-dihydroxy-3-methylphenyl)(7,8-dihydropyrido[4,3-d]pyrimidin-6(5H)-yl)methanone], for which the IC50 in test [1] was 1 to 10 µM; in test [2], over 10 µM.
Taken in the same sequence, the figures for `CN1CCN(Cc2ccc3c(c2)CN(C(=O)c2c(O)cc(O)cc2OCc2ccccc2)C3)CC1` [Example 49, (2-(benzyloxy)-4,6-dihydroxyphenyl)(5-((4-methylpiperazin-1-yl)methyl)isoindolin-2-yl)methanone] were under 1 µM and 1 to 10 µM.
In the case of `O=C(c1c(O)cc(O)cc1OCc1ccccc1)N1CCCc2ccccc21` [Example 73, (2-(Benzyloxy)-4,6-dihydroxyphenyl)(3,4-dihydroquinolin-1(2H)-yl)methanone], the IC50 in test [1] and in test [2] was 1 to 10 µM each time.
For the compound `Cc1c(O)cc(O)c(C(=O)N2Cc3cccc(CN4CCN(C)CC4)c3C2)c1OCc1ccccc1` [Example 75, (2-(Benzyloxy)-4,6-dihydroxy-3-methylphenyl)(4-((4-methylpiperazin-1-yl)methyl)isoindolin-2-yl)methanone], the IC50 in test [1] was under 1 µM; in test [2], over 10 µM.
For the compound `Cc1c(O)cc(O)c(C(=O)N2Cc3ccc(CN4CCOCC4)cc3C2)c1OCc1ccccc1` [Example 69, (2-(Benzyloxy)-4,6-dihydroxy-3-methylphenyl)(5-(morpholinomethyl)isoindolin-2-yl)methanone], the figures for the IC50 in test [1] and in test [2] were under 1 µM and over 10 µM, respectively.
Regarding `Cc1c(O)cc(O)c(C(=O)N2Cc3ccc(C(=O)N(C)C)cc3C2)c1OCc1ccccc1` [Example 83, 2-(2-(Benzyloxy)-4,6-dihydroxy-3-methylbenzoyl)-N,N-dimethylisoindoline-5-carboxamide], the half-inhibitory concentration (IC50) in test [1] is under 1 µM; in test [2], over 10 µM.
With `CNC(=O)c1cccc2c1CN(C(=O)c1c(O)cc(O)c(C)c1OCc1ccccc1)C2` [Example 86, 2-(2-(benzyloxy)-4,6-dihydroxy-3-methylbenzoyl)-N-methylisoindoline-4-carboxamide], the IC50 in test [1] was 1 to 10 µM; in test [2], over 10 µM.
As to `C=Cc1cccc2c1CN(C(=O)c1c(O)cc(O)c(C)c1OCc1ccccc1)C2` [Example 51, (2-(benzyloxy)-4,6-dihydroxy-3-methylphenyl)(4-vinylisoindolin-2-yl)methanone], the concentration for half-maximal inhibition (IC50) in test [1] was under 1 µM; in test [2], over 10 µM.
As to `Cc1c(O)cc(O)c(C(=O)N2CCc3cccnc3C2)c1OCc1ccccc1` [Example 53, (2-(benzyloxy)-4,6-dihydroxy-3-methylphenyl)(5,8-dihydro-1,7-naphthyridin-7(6H)-yl)methanone], the figures for the IC50 in test [1] and in test [2] were 1 to 10 µM and over 10 µM, respectively.
On to `O=C(c1c(O)cc(O)cc1OCc1cc[nH]n1)N1CCCC1` [Example 21, (2-((1H-pyrazol-3-yl)methoxy)-4,6-dihydroxyphenyl)(pyrrolidin-1-yl)methanone], for which the IC50 in test [1] and in test [2] was over 10 µM throughout.
Turning to `O=C(c1c(O)cc(O)cc1OCc1ccccc1)N1CCc2ccccc2C1` [Example 58, (2-(benzyloxy)-4,6-dihydroxyphenyl)(3,4-dihydroisoquinolin-2(1H)-yl)methanone], the IC50 in test [1] and in test [2] was 1 to 10 µM in each case.
In the case of `CNC(=O)c1ccc2c(c1)CN(C(=O)c1c(O)cc(O)c(C)c1OCc1ccccc1)C2` [Example 84, 2-(2-(Benzyloxy)-4,6-dihydroxy-3-methylbenzoyl)-N-methylisoindoline-5-carboxamide], the IC50 was under 1 µM in test [1] and over 10 µM in test [2].
Take `O=C(c1c(O)cc(O)cc1OC1CCCC1)N1CCCC1` [Example 2, (2-(cyclopentyloxy)-4,6-dihydroxyphenyl)(pyrrolidin-1-yl)methanone]: the IC50 in test [1] and in test [2] was over 10 µM throughout.
With `Cc1c(O)cc(O)c(C(=O)N2Cc3cccc(CO)c3C2)c1OCc1ccccc1` [Example 39, (2-benzyloxy-4,6-dihydroxy-3-methyl-phenyl)-[4-(hydroxymethyl)isoindolin-2-yl]methanone], the figures for the IC50 in test [1] and in test [2] were under 1 µM and over 10 µM, respectively.
Taken in the same sequence, the figures for `COc1cccc2c1CN(C(=O)c1c(O)cc(O)cc1OCc1ccccc1)C2` [Example 19, (2-benzyloxy-4,6-dihydroxy-phenyl)-(4-methoxyisoindolin-2-yl)methanone] were under 1 µM and under 1 µM.
Taken in the same sequence, the figures for `Cc1c(O)cc(O)c(C(=O)N2Cc3cccnc3C2)c1OCc1ccccn1` [Example 33, 5,7-dihydropyrrolo[3,4-b]pyridin-6-yl-[4,6-dihydroxy-3-methyl-2-(2-pyridylmethoxy)phenyl]methanone] were 1 to 10 µM and over 10 µM.
The corresponding values for `COc1cc2c(cc1OC)CN(C(=O)c1c(O)cc(O)cc1OC(C)c1ccccc1)C2` (centres unmarked) [Example 29, [2,4-dihydroxy-6-(1-phenylethoxy)phenyl]-(5,6-dimethoxyisoindolin-2-yl)methanone] are under 1 µM and 1 to 10 µM.
Take `CC(Oc1cc(O)cc(O)c1C(=O)N1CCCC1)c1ccccc1` (single isomer, unassigned) [Example 14]: the IC50 in test [1] and in test [2] was over 10 µM each time.
Take `O=C(c1c(O)cc(O)cc1OCc1c[nH]nn1)N1CCCC1` [Example 22, [2,4-dihydroxy-6-(1H-triazol-4-ylmethoxy)phenyl]-pyrrolidin-1-yl-methanone]: the half-inhibitory concentration (IC50) in test [1] and in test [2] was over 10 µM each time.
Regarding `Cc1c(O)cc(O)c(C(=O)N2Cc3ccc(CN(C)C)cc3C2)c1OCc1ccccc1` [Example 68, (2-(Benzyloxy)-4,6-dihydroxy-3-methylphenyl)(5-((dimethylamino)methyl)isoindolin-2-yl)methanone], the IC50 in test [1] is under 1 µM; in test [2], over 10 µM.
For `O=C(c1c(O)cc(O)cc1OCc1ccccn1)N1CCCC1` [Example 12, [2,4-dihydroxy-6-(2-pyridylmethoxy)phenyl]-pyrrolidin-1-yl-methanone], the IC50 in test [1] and in test [2] was over 10 µM each time.
On to `Cc1c(O)cc(O)c(C(=O)N2Cc3cccc(N4CCCC(O)C4)c3C2)c1OCc1ccccc1` (centres unmarked) [Example 81, (2-(Benzyloxy)-4,6-dihydroxy-3-methylphenyl)(4-(3-hydroxypiperidin-1-yl)isoindolin-2-yl)methanone], for which the values for the IC50 in test [1] and in test [2] were under 1 µM and over 10 µM, respectively.
The corresponding values for `Cc1c(O)cc(O)c(C(=O)N2Cc3ccccc3C(CO)C2)c1OCc1ccccc1` (centres unmarked) [Example 66, (2-(Benzyloxy)-4,6-dihydroxy-3-methylphenyl)(4-(hydroxymethyl)-3,4-dihydroisoquinolin-2(1H)-yl)methanone] are 1 to 10 µM and over 10 µM.
Regarding `COc1c(C)c(O)cc(O)c1C(=O)N1Cc2ccc(CN3CCN(C)CC3)cc2C1` [Example 92, (4,6-Dihydroxy-2-methoxy-3-methylphenyl)(5-((4-methylpiperazin-1-yl)methyl)isoindolin-2-yl)methanone], the IC50 in test [1] is under 1 µM; in test [2] it was over 10 µM.
